Non-standard residues stand in square brackets, D forms with d. Residues, ends and D or L forms follow the SMILES beside them. *: point of attachment. Dolaproine = CO[C@@H]([C@@H]1CCCN1)[C@@H](C)C(=O)O; Dil = CC[C@H](C)[C@H](NC)[C@@H](CC(=O)O)OC; Doe = c1ccc(C[C@H](N*)c2nccs2)cc1; Aib = CC(C)(N)C(=O)O

The subject of assay [1] is head and neck cancer model PDX-HNX-24715. The assay can be described thus: PDX tumor growth versus standard of care. It is filed as in vivo, mouse. As to conditions: 5 mg/kg. The procedure:
(§1) The effects of ADCs were evaluated on the in vivo growth of human tumor patient-derived xenografts (PDX) implanted into immunodeficient NOD/SCID mice. To establish initial PDX cell lines, primary human tumor resection samples were procured from clinical sites following Institutional Review Board for the Protection of Human Subjects approval and in accordance with HIPAA regulations. Tumor fragments were implanted subcutaneously in mice and animals were monitored for health status daily and for tumor growth by visual inspection twice per week. Once the tumors were palpable, measurements of tumor volume began in order to track tumor growth and estimate cell doubling time. Tumor volume was estimated using the equation V=(A*B^2)/2 where A is the long axis and B is the short axis. When tumors reached a volume of 500 mm^3 to 1,500 mm^3, they were harvested for study and for re-transplant in naïve mice as a PDX line. Tumors were mechanically dissociated into fragments for cryopreservation or additional passage in mice.
(§2) For efficacy studies, PDX tumors were aseptically harvested from passaging mice and minced into fragments approximately 2 mm in diameter. The PDX tumor fragments were transplanted into the right flank of naïve 7-10-week old NOD-SCID mice.
(§3) Tumor growth was initially followed by palpability with measurements beginning once tumor volumes reached about 30 mm^3. Studies were randomized based on tumor size once a cohort of tumor-bearing mice reached an average of 200 mm^3. Animals were then dosed by intravenous injection of test ADCs once every four days (day 1, 5, 9, and 13) for four total doses (q4d×4). For each tumor measurement taken at regular intervals the tumor volume was calculated and an average tumor size +/− the standard error of the mean (SEM) was derived per cohort of surviving animals to determine tumor growth rates. In some studies, a “waterfall plot” was derived by calculating the maximum observed percent difference in tumor volume from the starting volume post the final dose of ADC. […]

Assay [2] relates to NSCLC model PDX-NSX-15137. The assay can be described thus: PDX tumor growth versus standard of care. Format: in vivo, mouse. As to conditions: 22.5 mg/kg. The procedure:
as §1, §2, §3

For assay [3], the system named is H1299 cells. The assay can be described thus: In vitro cytotoxicity (ATPlite viability, four days). Format: cell-based. As to conditions: Homo sapiens, NCI-H1299; H1299, NSCLC. The procedure:
(§4) Cells were incubated in a 6-fold 9-point dilution series of respective ADCs ranging in concentration from 600 nM to 0.357225 pM. […] The mean of luminescence counts of triplicate samples were normalized to a medium only control (growth medium no ADC) to calculate percent viability.
On the technique in general: In ATP-based viability assays light output follows the ATP content of the culture.

In assay [4] the test system is PC3 cells. Described as above. It is filed as cell-based. Particulars: Homo sapiens, PC-3; PC3, prostate cancer. As to the method: as §4
The subject of assay [5] is H2009 cells. The assay is described as above. Format: cell-based. As to conditions: Homo sapiens, NCI-H2009; H2009, lung adenocarcinoma. As to the method: as §4
Assay [6] deals with primary human aortic smooth muscle cells (HuAoSMC). Described as above. Format: cell-based. The procedure:
as §4

In assay [7] the test system is PE/CA-PJ-49 cells. The description is as above. Format: cell-based. Particulars: Homo sapiens; PE/CA-PJ-49, oral squamous cell carcinoma. The procedure:
as §4

Assay [8] concerns SCC-25 cells. The assay is described as above. It is filed as cell-based. As to conditions: Homo sapiens; SCC-25, head and neck cancer. The procedure: as §4

As for `N.N.[Cl][Pt][Cl]` [cisplatin, reference compound], the “tumor size at day 25” value in assay [1] is on record as “more than doubled in size”.

As to `CC(=O)O[C@H]1C(=O)[C@@]2(C)[C@H]([C@H](OC(=O)c3ccccc3)[C@]3(O)C[C@H](OC(=O)[C@H](O)[C@@H](NC(=O)c4ccccc4)c4ccccc4)C(C)=C1C3(C)C)[C@]1(OC(C)=O)CO[C@@H]1C[C@@H]2O` [Paclitaxel, reference compound], in assay [2], the “average tumor size at day 35” value is “doubled” and the “day by which all mice had been sacrificed due to excessive tumor growth” value is at most 42 days.

As for `CC[C@H](C)[C@@H]([C@@H](CC(=O)N1CCC[C@H]1[C@H](OC)[C@@H](C)C(=O)N[C@@H](Cc1ccccc1)c1nccs1)OC)N(C)C(=O)[C@@H](NC(=O)C(C)(C)N)C(C)C` [Aur0101, 2-methylalanyl-N-[(3R,4S,5S)-3-methoxy-1-{(2S)-2-[(1R,2R)-1-methoxy-2-methyl-3-oxo-3-{[(1S)-2-phenyl-1-(1,3-thiazol-2-yl)ethyl]amino}propyl]pyrrolidin-1-yl}-5-methyl-1-oxoheptan-4-yl]-N-methyl-L-valinamide] (H-[Aib]V[Dil][Dolaproine]-Doe), the IC50 (in general, the concentration needed to halve the response being measured) in assay [3] came out at 0.202 nM; in assay [4], 0.0636 nM; in assay [5], 0.116 nM; in assay [6] it was 0.176 nM; in assay [7], 0.0373 nM; in assay [8], 0.047 nM.
